The source of these data is ChEMBL document CHEMBL1146703, “Mannopeptimycin esters and carbonates, potent antibiotic agents against drug-resistant bacteria” (2004).

In test [1] the test system is Enterococcus faecalis. Briefly: Antibacterial activity against Enterococcus faecalis. Format: functional.
Another test concerns Escherichia coli. Briefly: Antibacterial activity against Escherichia coli at </=64 ug/mL; No activity. It is filed as functional, organism-based.
Test [2] deals with Staphylococcus aureus. Briefly: Antibacterial activity against Staphylococcus aureus. It is filed as functional.
Test [3] relates to Staphylococcus aureus. In words: Antibacterial activity against Staphylococcus aureus; Range is 4-8. It is filed as functional.
For another test, the system named is Mus musculus. Briefly: Antibacterial activity against Staphylococcus aureus infection in mouse after i.v. administration (Vancomycin, ED50= 1.0 mg/kg ). Format: functional. To be noted: route intravenous.
For test [4], the system named is Staphylococcus aureus. Briefly: Antibacterial activity against Staphylococcus aureus; Range is 1-2. Format: functional.
The test system of test [5] is Enterococcus faecalis. Briefly: Antibacterial activity against Enterococcus faecalis; Range is 16-32. Format: functional.

≈ marks a conversion by molar mass, not a printed value.

Usually MIC stands for the smallest concentration in the dilution series that meets the test's criterion for growth inhibition. Turning to `C[C@@H](c1ccccc1)[C@@H]1NC(=O)CNC(=O)[C@H](COC(=O)C(c2ccccc2)c2ccccc2)NC(=O)[C@@H]([C@@H](O)[C@@H]2CNC(N)N2[C@H]2O[C@H](CO)[C@@H](O)[C@H](O)[C@@H]2O)NC(=O)[C@H]([C@@H](O)[C@@H]2CNC(N)N2)NC(=O)[C@@H](Cc2ccc(O[C@H]3O[C@H](CO)[C@@H](O[C@H]4O[C@H](CO)[C@@H](O)[C@H](O)[C@@H]4O)[C@H](O)[C@@H]3O)cc2)NC1=O` (stereo not given in full), the MIC was over 64 µg/mL against Enterococcus faecalis [1], “No activity” with Escherichia coli and over 64 µg/mL in the test on Staphylococcus aureus [2].
On to `C[C@@H](c1ccccc1)[C@@H]1NC(=O)CNC(=O)[C@H](COC(=O)Cc2ccccc2)NC(=O)[C@@H]([C@@H](O)[C@@H]2CNC(N)N2[C@H]2O[C@H](CO)[C@@H](O)[C@H](O)[C@@H]2O)NC(=O)[C@H]([C@@H](O)[C@@H]2CNC(N)N2)NC(=O)[C@@H](Cc2ccc(O[C@H]3O[C@H](CO)[C@@H](O[C@H]4O[C@H](CO)[C@@H](O)[C@H](O)[C@@H]4O)[C@H](O)[C@@H]3O)cc2)NC1=O` (stereo not given in full), for which the MIC result in the test on Escherichia coli is “No activity”.
On to `C[C@@H](c1ccccc1)[C@@H]1NC(=O)CNC(=O)[C@H](CO)NC(=O)[C@@H]([C@@H](O)[C@@H]2CNC(N)N2[C@H]2O[C@H](COC(=O)CCC3CCCC3)[C@@H](O)[C@H](O)[C@@H]2O)NC(=O)[C@H]([C@@H](O)[C@@H]2CNC(N)N2)NC(=O)[C@@H](Cc2ccc(O[C@H]3O[C@H](CO)[C@@H](O[C@H]4O[C@H](CO)[C@@H](O)[C@H](O)[C@@H]4O)[C@H](O)[C@@H]3O)cc2)NC1=O` (stereo not given in full), for which the MIC with Enterococcus faecalis [1] is over 64 µg/mL; in the test on Escherichia coli, “No activity”; against Staphylococcus aureus [2] it was over 64 µg/mL.
Take `CCCCCCC(=O)OC[C@H]1O[C@H](N2C(N)NC[C@H]2[C@H](O)[C@H]2NC(=O)[C@H]([C@@H](O)[C@@H]3CNC(N)N3)NC(=O)[C@@H](Cc3ccc(O[C@H]4O[C@H](CO)[C@@H](O[C@H]5O[C@H](CO)[C@@H](O)[C@H](O)[C@@H]5O)[C@H](O)[C@@H]4O)cc3)NC(=O)[C@H]([C@@H](C)c3ccccc3)NC(=O)CNC(=O)[C@H](CO)NC2=O)[C@@H](O)[C@@H](O)[C@@H]1O` (stereo not given in full): the MIC with Enterococcus faecalis [1] was over 64 µg/mL; in the test on Escherichia coli, “No activity”; against Staphylococcus aureus [2], over 64 µg/mL.
In the case of `C[C@@H](c1ccccc1)[C@@H]1NC(=O)CNC(=O)[C@H](CO)NC(=O)[C@@H]([C@@H](O)[C@@H]2CNC(N)N2[C@H]2O[C@H](CO)[C@@H](O)[C@H](O)[C@@H]2O)NC(=O)[C@H]([C@@H](O)[C@@H]2CNC(N)N2)NC(=O)[C@@H](Cc2ccc(O[C@H]3O[C@H](COC(=O)CCC4CCCC4)[C@@H](O[C@H]4O[C@H](CO)[C@@H](O)[C@H](O)[C@@H]4O)[C@H](O)[C@@H]3O)cc2)NC1=O` (stereo not given in full), the figures for the MIC in the test with Enterococcus faecalis [1], in the test with Escherichia coli and with Staphylococcus aureus [2] were 8 µg/mL (≈ 5.62 µM), “No activity” and 2 µg/mL (≈ 1.4 µM), respectively.
One may read the ED50 as the dose at which the effect has come halfway, by size or by number of responders. Turning to `CC(C)CC(=O)O[C@@H]1[C@H](O)[C@@H](O[C@H]2[C@H](O)[C@H](O)[C@@H](Oc3ccc(C[C@H]4NC(=O)[C@H]([C@@H](C)c5ccccc5)NC(=O)CNC(=O)[C@H](CO)NC(=O)[C@@H]([C@@H](O)[C@@H]5CNC(N)N5[C@H]5O[C@H](CO)[C@@H](O)[C@H](O)[C@@H]5O)NC(=O)[C@H]([C@@H](O)[C@@H]5CNC(N)N5)NC4=O)cc3)O[C@@H]2CO)O[C@H](CO)[C@H]1O` (stereo not given in full), the MIC against Staphylococcus aureus [3] is 8 µg/mL (≈ 5.78 µM); against Enterococcus faecalis [1] it was 64 µg/mL (≈ 46.3 µM); in the test on Escherichia coli, “No activity”. It took a dose of 2.6 mg/kg to reach the 50% effect level in the test with Mus musculus (ED50).
In the case of `C[C@@H](c1ccccc1)[C@@H]1NC(=O)CNC(=O)[C@H](CO)NC(=O)[C@@H]([C@@H](O)[C@@H]2CNC(N)N2[C@H]2O[C@H](COC(=O)C(c3ccccc3)c3ccccc3)[C@@H](O)[C@H](O)[C@@H]2O)NC(=O)[C@H]([C@@H](O)[C@@H]2CNC(N)N2)NC(=O)[C@@H](Cc2ccc(O[C@H]3O[C@H](CO)[C@@H](O[C@H]4O[C@H](CO)[C@@H](O)[C@H](O)[C@@H]4O)[C@H](O)[C@@H]3O)cc2)NC1=O` (stereo not given in full), the MIC is over 64 µg/mL against Enterococcus faecalis [1], “No activity” in the test on Escherichia coli and over 64 µg/mL in the test with Staphylococcus aureus [2].
For `CCCC(CCC)C(=O)OC[C@H]1O[C@H](O[C@H]2[C@H](O)[C@H](O)[C@@H](Oc3ccc(C[C@H]4NC(=O)[C@H]([C@@H](C)c5ccccc5)NC(=O)CNC(=O)[C@H](CO)NC(=O)[C@@H]([C@@H](O)[C@@H]5CNC(N)N5[C@H]5O[C@H](CO)[C@@H](O)[C@H](O)[C@@H]5O)NC(=O)[C@H]([C@@H](O)[C@@H]5CNC(N)N5)NC4=O)cc3)O[C@@H]2CO)[C@@H](O)[C@@H](O)[C@@H]1O` (stereo not given in full), the MIC against Enterococcus faecalis [1] was 4 µg/mL (≈ 2.81 µM); in the test on Escherichia coli it was “No activity”; in the test with Staphylococcus aureus [4], 2 µg/mL (≈ 1.4 µM). In the test with Mus musculus, this molecule showed an ED50 of 0.52 mg/kg.
Turning to `CC(C)CC(=O)O[C@H]1[C@H](O)[C@H](O)[C@@H](O[C@H]2[C@H](O)[C@H](O)[C@@H](Oc3ccc(C[C@H]4NC(=O)[C@H]([C@@H](C)c5ccccc5)NC(=O)CNC(=O)[C@H](CO)NC(=O)[C@@H]([C@@H](O)[C@@H]5CNC(N)N5[C@H]5O[C@H](CO)[C@@H](O)[C@H](O)[C@@H]5O)NC(=O)[C@H]([C@@H](O)[C@@H]5CNC(N)N5)NC4=O)cc3)O[C@@H]2CO)O[C@@H]1CO` (stereo not given in full), the MIC against Enterococcus faecalis [5] was 32 µg/mL (≈ 23.1 µM); with Escherichia coli, “No activity”; against Staphylococcus aureus [2], 4 µg/mL (≈ 2.89 µM). The same molecule showed a 50% effective dose (ED50) in the test with Mus musculus of 0.6 mg/kg.
On to `C[C@@H](c1ccccc1)[C@@H]1NC(=O)CNC(=O)[C@H](CO)NC(=O)[C@@H]([C@@H](O)[C@@H]2CNC(N)N2[C@H]2O[C@H](CO)[C@@H](O)[C@H](O)[C@@H]2O)NC(=O)[C@H]([C@@H](O)[C@@H]2CNC(N)N2)NC(=O)[C@@H](Cc2ccc(O[C@H]3O[C@H](CO)[C@@H](O[C@H]4O[C@H](CO)[C@@H](O)[C@H](O)[C@@H]4O)[C@H](O)[C@@H]3O)cc2)NC1=O` (stereo not given in full), for which the MIC against Enterococcus faecalis [1] is over 64 µg/mL; with Escherichia coli, “No activity”; with Staphylococcus aureus [2], over 64 µg/mL.
For the molecule `C[C@@H](c1ccccc1)[C@@H]1NC(=O)CNC(=O)[C@H](CO)NC(=O)[C@@H]([C@@H](O)[C@@H]2CNC(N)N2[C@H]2O[C@H](COC(=O)Cc3ccccc3)[C@@H](O)[C@H](O)[C@@H]2O)NC(=O)[C@H]([C@@H](O)[C@@H]2CNC(N)N2)NC(=O)[C@@H](Cc2ccc(O[C@H]3O[C@H](CO)[C@@H](O[C@H]4O[C@H](CO)[C@@H](O)[C@H](O)[C@@H]4O)[C@H](O)[C@@H]3O)cc2)NC1=O` (stereo not given in full), in the test on Escherichia coli, the MIC entry is “No activity”.
In the case of `CCCC(CCC)C(=O)OC[C@@H]1NC(=O)[C@@H]([C@@H](O)[C@@H]2CNC(N)N2[C@H]2O[C@H](CO)[C@@H](O)[C@H](O)[C@@H]2O)NC(=O)[C@H]([C@@H](O)[C@@H]2CNC(N)N2)NC(=O)[C@@H](Cc2ccc(O[C@H]3O[C@H](CO)[C@@H](O[C@H]4O[C@H](CO)[C@@H](O)[C@H](O)[C@@H]4O)[C@H](O)[C@@H]3O)cc2)NC(=O)[C@H]([C@@H](C)c2ccccc2)NC(=O)CNC1=O` (stereo not given in full), in the test on Escherichia coli, the MIC result is “No activity”.
On the same count and under the same terms, the result for `CCCC(CCC)C(=O)OC[C@H]1O[C@H](N2C(N)NC[C@H]2[C@H](O)[C@H]2NC(=O)[C@H]([C@@H](O)[C@@H]3CNC(N)N3)NC(=O)[C@@H](Cc3ccc(O[C@H]4O[C@H](CO)[C@@H](O[C@H]5O[C@H](CO)[C@@H](O)[C@H](O)[C@@H]5O)[C@H](O)[C@@H]4O)cc3)NC(=O)[C@H]([C@@H](C)c3ccccc3)NC(=O)CNC(=O)[C@H](CO)NC2=O)[C@@H](O)[C@@H](O)[C@@H]1O` (stereo not given in full) reads “No activity”.
Still for that read-out and setting: the result for `CCCCCCC(=O)OC[C@@H]1NC(=O)[C@@H]([C@@H](O)[C@@H]2CNC(N)N2[C@H]2O[C@H](CO)[C@@H](O)[C@H](O)[C@@H]2O)NC(=O)[C@H]([C@@H](O)[C@@H]2CNC(N)N2)NC(=O)[C@@H](Cc2ccc(O[C@H]3O[C@H](CO)[C@@H](O[C@H]4O[C@H](CO)[C@@H](O)[C@H](O)[C@@H]4O)[C@H](O)[C@@H]3O)cc2)NC(=O)[C@H]([C@@H](C)c2ccccc2)NC(=O)CNC1=O` (stereo not given in full) reads “No activity”.
Consider `C[C@@H](c1ccccc1)[C@@H]1NC(=O)CNC(=O)[C@H](CO)NC(=O)[C@@H]([C@@H](O)[C@@H]2CNC(N)N2[C@H]2O[C@H](CO)[C@@H](O)[C@H](O)[C@@H]2O)NC(=O)[C@H]([C@@H](O)[C@@H]2CNC(N)N2)NC(=O)[C@@H](Cc2ccc(O[C@H]3O[C@H](CO)[C@@H](O[C@H]4O[C@H](COC(=O)CCC5CCCC5)[C@@H](O)[C@H](O)[C@@H]4O)[C@H](O)[C@@H]3O)cc2)NC1=O` (stereo not given in full), for which the minimum inhibitory concentration (MIC) with Enterococcus faecalis [1] was 4 µg/mL (≈ 2.81 µM); with Escherichia coli, “No activity”; against Staphylococcus aureus [2], 1 µg/mL (≈ 0.702 µM).
Turning to `C[C@@H](c1ccccc1)[C@@H]1NC(=O)CNC(=O)[C@H](COC(=O)CCC2CCCC2)NC(=O)[C@@H]([C@@H](O)[C@@H]2CNC(N)N2[C@H]2O[C@H](CO)[C@@H](O)[C@H](O)[C@@H]2O)NC(=O)[C@H]([C@@H](O)[C@@H]2CNC(N)N2)NC(=O)[C@@H](Cc2ccc(O[C@H]3O[C@H](CO)[C@@H](O[C@H]4O[C@H](CO)[C@@H](O)[C@H](O)[C@@H]4O)[C@H](O)[C@@H]3O)cc2)NC1=O` (stereo not given in full), the MIC with Enterococcus faecalis [1] was over 64 µg/mL; in the test with Escherichia coli, “No activity”; in the test with Staphylococcus aureus [2] it was over 64 µg/mL.
Turning to `CCCCCC(=O)OC[C@@H]1NC(=O)[C@@H]([C@@H](O)[C@@H]2CNC(N)N2[C@H]2O[C@H](CO)[C@@H](O)[C@H](O)[C@@H]2O)NC(=O)[C@H]([C@@H](O)[C@@H]2CNC(N)N2)NC(=O)[C@@H](Cc2ccc(O[C@H]3O[C@H](CO)[C@@H](O[C@H]4O[C@H](CO)[C@@H](O)[C@H](O)[C@@H]4O)[C@H](O)[C@@H]3O)cc2)NC(=O)[C@H]([C@@H](C)c2ccccc2)NC(=O)CNC1=O` (stereo not given in full), in the test with Escherichia coli, the MIC entry is “No activity”.
As to `CCCCCC(=O)OC[C@H]1O[C@H](N2C(N)NC[C@H]2[C@H](O)[C@H]2NC(=O)[C@H]([C@@H](O)[C@@H]3CNC(N)N3)NC(=O)[C@@H](Cc3ccc(O[C@H]4O[C@H](CO)[C@@H](O[C@H]5O[C@H](CO)[C@@H](O)[C@H](O)[C@@H]5O)[C@H](O)[C@@H]4O)cc3)NC(=O)[C@H]([C@@H](C)c3ccccc3)NC(=O)CNC(=O)[C@H](CO)NC2=O)[C@@H](O)[C@@H](O)[C@@H]1O` (stereo not given in full), the minimum inhibitory concentration (MIC) in the test with Enterococcus faecalis [1] was over 64 µg/mL; with Escherichia coli, “No activity”; in the test on Staphylococcus aureus [2], over 64 µg/mL.
